Test results taken from patent US20250144067A1, “PERSONALIZED STARVATION THERAPY FOR CANCER” (Faeth Therapeutics, Inc., priority 2021, published 2025).
Where a name gives a salt, the structure may show the parent alone. Read-outs that look alike come from different tables or passages of the source.

Columns and labels:
[1] = test system: NCI-H292 lung cancer cells; assay: FDA drug screening, complete media vs cholesterol-free media without statin (TABLE 1); type: cell-based, human
[2] = test system: NCI-H292 lung cancer cells; assay: FDA drug screening, complete media vs cholesterol-free media with simvastatin (TABLE 2); type: cell-based, human
[3] = NCI-H292 cells, cholesterol-free media without statin, FDA drug library screen
[4] = NCI-H292 cells, complete media, FDA drug library screen
[5] = complete vs cholesterol-free media, >0 enhanced anti-cancer activity, about 0 neutral, <0 antagonist
[6] = NCI-H292 cells, FDA drug library screen, cholesterol-free media with simvastatin 0.04 μM
[7] = NCI-H292 cells, FDA drug library screen, complete media
[8] = complete media vs cholesterol-free media + simvastatin (0.04 μM), >0 enhanced anti-cancer activity, about 0 neutral, <0 antagonist
[9] = Complete minus Cholesterol-free, >0 enhanced anti-cancer activity, about 0 neutral, <0 antagonist
[10] = complete media minus cholesterol-free media + simvastatin, >0 enhanced anti-cancer activity, about 0 neutral, <0 antagonist
[11] = NCI-H292 cells, cholesterol-free media without statin
[12] = NCI-H292 cells, cholesterol-free media with simvastatin 0.04 μM, cell growth value in FDA drug screen
[13] = NCI-H292 cells, complete media, cell growth value in FDA drug screen
[14] = complete vs cholesterol-free media, greater than 0 enhanced anti-cancer activity, about 0 neutral, below 0 antagonists
[15] = NCI-H292 cells, FDA library drug in cholesterol-free media with simvastatin 0.04 μM
[16] = NCI-H292 cells, FDA library drug in complete media
[17] = Complete minus Cholesterol-free, greater than 0 enhanced anti-cancer activity, about 0 neutral, below 0 antagonists
[18] = NCI-H292 cells in cholesterol-free media without statin
[19] = NCI-H292 cells in complete media
[20] = NCI-H292 cells, drug in cholesterol-free media with simvastatin 0.04 μM
[21] = NCI-H292 cells, drug in complete media
[22] = Complete minus Cholesterol-free, […]

Compound	Cholesterol-free [1, 3]	Complete [1, 4]	Cholesterol-free media + simvastatin (0.04 μM) [2, 6]	Complete Media [2, 7]	Difference [2, 8]	Difference [1, 9]	Difference [2, 10]	Cholesterol-free [1, 11]	Complete ([1]; NCI-H292 cells, complete media)	other results
CO[C@@H]1[C@@H](O[C@@H]2O[C@H](C)[C@@H](O[C@H]3C[C@@](C)(O)[C@@H](OC(=O)CC(C)C)[C@H](C)O3)[C@H](N(C)C)[C@H]2O)[C@@H](CC=O)C[C@@H](C)[C@@H](O)/C=C/C=C/C[C@@H](C)OC(=O)C[C@H]1OC(C)=O [Josamycin]	0.6797	1.216	0.9194	0.8246	−0.09					Difference [1, 5]: 0.54
Nc1ccc(S(=O)(=O)Nc2ccccn2)cc1 [Sulfapyridine]	0.8112	0.7909	1.045	1.844		−0.02	0.80			
C[C@@H]1CCO[C@H]2Cn3cc(C(=O)NCc4ccc(F)cc4F)c(=O)c(O)c3C(=O)N12 [Dolutegravir (sodium)]						−0.20	0.05	0.8373	0.6354	Cholesterol-free media + simvastatin (0.04 μM) [2, 12]: 0.4489; Complete Media [2, 13]: 0.5012
CC1=C(C(=O)O)N2C(=O)[C@@H](NC(=O)[C@H](N)c3ccccc3)[C@H]2SC1 [Cephalexin]					−0.36			1.173	0.8408	Difference [1, 14]: −0.33; Cholesterol-free media + simvastatin (0.04 μM) [2, 15]: 1.341; Complete Media [2, 16]: 0.9798
c1ccc(-c2ccc(C(c3ccccc3)n3ccnc3)cc2)cc1 (stereo not shown) [Bifonazole]			0.4379	0.7844			0.35	1.572	1.228	Difference [1, 14]: −0.34
CCC(=O)NCC[C@@H]1CCc2ccc3c(c21)CCO3 [Ramelteon]			1.166	1.318			0.15			Difference ([1]; Complete minus Cholesterol-free, greater than 0 enhanced anti-cancer activity, about 0 neutral, below 0 antagonist): −0.10; Cholesterol-free ([1]; NCI-H292 cells, FDA drug library screen, cholesterol-free media without statin): 0.9442; Complete [1, 7]: 0.8409
CC1(C)S[C@@H]2[C@H](NC(=O)[C@H](C(=O)[O-])c3ccsc3)C(=O)N2[C@H]1C(=O)[O-].[Na+].[Na+] [Ticarcillin (disodium)]	0.7001	1.43	1.294	1.207	−0.09					Difference [1, 5]: 0.73
CCN(CC)CCNC(=O)c1c(C)[nH]c(/C=C2\C(=O)Nc3ccc(F)cc32)c1C [Sunitinib]	0.5331	0.523			−0.36	−0.01				Cholesterol-free media + simvastatin (0.04 μM) [2, 15]: 1.48; Complete Media [2, 16]: 1.121
Clc1cccc(Cl)c1N=C1NCCN1 [Clonidine]					−0.34					Difference [1, 17]: −0.63; Cholesterol-free [1, 18]: 1.46; Complete [1, 19]: 0.8249; Cholesterol-free media + simvastatin (0.04 μM) [2, 15]: 1.26; Complete Media [2, 16]: 0.9157
NCCc1c[nH]cn1 [Histamine]	0.9318	0.9813	1.15	1.573		0.05	0.42			
Metaproterenol (hemisulfate)	0.8425				−0.21					Difference [1, 5]: 0.09; Cholesterol-free media + simvastatin (0.04 μM) [2, 20]: 1.002; Complete Media [2, 21]: 0.7891
CC[C@@H](C(N)=O)N1CCCC1=O [Levetiracetam]			1.002	0.917	−0.09	−0.22		1.098	0.8825	
CSCCC(N)C(=O)O (racemic) [DL-Methionine]	1.381	1.325				−0.06	0.02			Cholesterol-free media + simvastatin (0.04 μM) [2, 12]: 0.9866; Complete Media [2, 13]: 1.007
Primaquine (Diphosphate)										Cholesterol-free [1]: 1.192; Complete [1]: 0.8514; Difference [1]: −0.34; Cholesterol-free media + simvastatin (0.04 μM) [2]: 1.421; Complete Media [2]: 1.652; Difference [2]: 0.23
CC(=O)Oc1ccccc1C(=O)O [Aspirin]					−0.21			1.474	1.02	Difference [1, 14]: −0.45; Cholesterol-free media + simvastatin (0.04 μM) [2, 20]: 1.19; Complete Media [2, 21]: 0.9812
CC(=O)OCC(=O)[C@@]1(O)CC[C@H]2[C@@H]3CCC4=CC(=O)C=C[C@]4(C)[C@H]3[C@@H](O)C[C@@]21C [Prednisolone acetate]			0.7463	0.6367	−0.11			0.9263	0.6003	Difference [1, 14]: −0.33
Cc1[nH]c(=O)c(C#N)cc1-c1ccncc1 [Milrinone]	0.9793	0.9407	1.16	1.825		−0.04	0.66			
CC(=O)Oc1cc(C)c(OC(C)=O)c2ccccc12 [Vitamin K4]								0.9817	0.7726	Difference [1, 22]: −0.21; Cholesterol-free media + simvastatin (0.04 μM) ([2]; NCI-H292 cells, cholesterol-free media with simvastatin 0.04 μM, […]): 0.7559; Complete Media ([2]; NCI-H292 cells, complete media, […]): 0.8779; Difference ([2]; complete media minus cholesterol-free media + simvastatin, […]): 0.12
Setiptiline (maleate)	0.9606	0.9832			−0.25	0.02				Cholesterol-free media + simvastatin (0.04 μM) [2, 20]: 1.022; Complete Media [2, 21]: 0.7709
CC[C@@]1(O)C[C@H](O[C@H]2C[C@H](N(C)C)[C@H](O[C@H]3C[C@H](O)[C@H](O[C@H]4CCC(=O)[C@H](C)O4)[C@H](C)O3)[C@H](C)O2)c2c(cc3c(c2O)C(=O)c2c(O)cccc2C3=O)[C@H]1C(=O)OC.Cl [Aclacinomycin A hydrochloride]	0.01335	0.007534								Difference [1, 22]: −0.01; Cholesterol-free media + simvastatin (0.04 μM) ([2]; NCI-H292 cells, cholesterol-free media with simvastatin 0.04 μM, FDA drug library screen (TABLE 2)): 0.01688; Complete Media ([2]; NCI-H292 cells, complete media, FDA drug library screen (TABLE 2)): 0.01023; Difference ([2]; complete media minus cholesterol-free media + simvastatin (0.04 μM), […]): −0.01
C[C@H]1COc2c(N3CCN(C)CC3)c(F)cc3c(=O)c(C(=O)O)cn1c23 [Levofloxacin (hydrate)]			1.078	0.9583	−0.12					Difference [1, 17]: −0.48; Cholesterol-free [1, 18]: 1.308; Complete [1, 19]: 0.8243
(+)-Catechin hydrate						0.05				Difference ([2]; complete media minus cholesterol-free media + simvastatin (0.04 μM), >0 enhanced anti-cancer activity, about 0 neutral, <0 antagonist): −0.05
N#Cc1ccc2[nH]cc(CCCCN3CCN(c4ccc5oc(C(N)=O)cc5c4)CC3)c2c1 [Vilazodone (Hydrochloride)]			0.5785	0.8037			0.23	1.019	0.6984	Difference [1, 14]: −0.32
